Assay [1] deals with T1, HhTAR1 (Halyomorpha halys, UniProt A0A8A6C5M4).
T1 sequence (A0A8A6C5M4 1-448): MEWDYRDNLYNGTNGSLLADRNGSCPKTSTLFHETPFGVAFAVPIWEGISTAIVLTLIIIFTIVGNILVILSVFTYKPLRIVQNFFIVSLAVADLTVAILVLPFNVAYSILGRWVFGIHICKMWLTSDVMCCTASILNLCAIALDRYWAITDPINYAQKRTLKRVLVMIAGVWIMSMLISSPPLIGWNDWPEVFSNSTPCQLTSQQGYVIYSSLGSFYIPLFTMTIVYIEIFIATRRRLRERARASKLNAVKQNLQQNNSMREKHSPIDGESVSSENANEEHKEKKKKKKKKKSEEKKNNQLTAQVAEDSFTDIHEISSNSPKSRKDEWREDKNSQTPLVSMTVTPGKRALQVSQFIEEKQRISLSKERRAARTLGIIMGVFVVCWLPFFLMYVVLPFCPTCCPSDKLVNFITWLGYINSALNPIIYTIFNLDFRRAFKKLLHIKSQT
The assay can be described thus: Fluo-4 calcium mobilization, FlexStation II, HEK […] cells. The class given is cell-based. In general terms: Calcium assays in cells follow changes in intracellular calcium, usually with a dye or a luminescent sensor.

The target of assay [2] is T1, HhTAR1. The assay is classed as cell-based.

The term EC50 denotes the concentration at which the effect is half-maximal. On to `NCCc1ccc(O)cc1` [tyramine], for which, in assay [1], the half-maximal effective concentration (EC50) was 1020 nM. `COC(=O)[C@@H]1[C@H]2C[C@H]3c4[nH]c5ccccc5c4CCN3C[C@@H]2CC[C@@H]1O` [yohimbine] showed a Kb in assay [2] of 5.5 nM.

(Values after doi:10.1101/2020.10.05.326645v1 (biorxiv, 2020).)
